Experimental data taken from patent US20210121527A1, “METHODS OF TREATING MINIMAL RESIDUAL CANCER” (ICAHN SCHOOL OF MEDICINE AT MOUNT SINAI, priority 2018, published 2021).

System: HER2 in MCF10A-HER2 cells
Experiment: HER2 signaling Western blot and surface biotinylation/endocytosis assays
Format: cell-based, human
Settings: 2 μM
Excerpt: Immunoblot analysis: Cells were lysed in RIPA buffer and protein analyzed by immunoblotting as described previously (Ranganathan et al., “Functional Coupling of p38-Induced Up-Regulation of BiP and Activation of RNA-Dependent Protein Kinase-Like Endoplasmic Reticulum Kinase to Drug Resistance of Dormant Carcinoma Cells,” Cancer Res. 66:1702-1711 (2006), which is hereby incorporated by reference in its entirety). Membranes were blotted using the additional following antibodies: P-PERK (T982) (Tenkerian et al., “mTORC2 Balances AKT Activation and eIF2alpha Serine 51 Phosphorylation to Promote Survival Under Stress,” Mol. Cancer Res. 13:1377-1388 (2015), which is hereby incorporated by reference in its entirety), PERK (Santa Cruz, Dallas, Tex.), P-EGFR(Y1148), EGFR, P-AKT(S473), P-S6 (S235/236) (Cell signaling, Danvers, Mass.), GAPDH (Millipore, Darmstadt, Germany), and β-Tubulin (Abcam, Cambridge, Mass.). For induction of ER stress, MCF10A-HER2 cells were plated in low adhesion plates for 24 hours before collection.
Cell surface biotinylation and endocytosis assay: For cell surface biotinylation, Pierce cell surface protein isolation kit was used following manufacturer's instructions with minor changes. Briefly, MCF10A-HER2 cells were serum- and EGF-starved and treated+/−LY4 for 24 hours before being stimulated with +/−EGF (100 ng/ml) for 20′. Then, cells were washed with ice-cold PBS and surface proteins biotinylated for 30 minutes at 4° C. After quenching, cells were harvested and lysed using RIPA buffer. Protein lysates were incubated with NeutrAvidin agarose beads and the bound proteins were released by incubation with SDS-PAGE sample buffer containing DTT (50 mM). For endocytosis assays (Cihil et al., “The Cell-Based L-Glutathione Protection Assays to Study Endocytosis and Recycling of Plasma Membrane Proteins,” J. Vis. Erp. e50867 (2013), which is hereby incorporated by reference in its entirety), cells were treated similarly but before treatment with EGF cell surface proteins were biotinylated. After 20 minute incubation+/−EGF (100 ng/ml) at 37° C. […]

Cc1cc(NC(=O)[C@H](O)c2cc(F)cc(F)c2)ccc1-c1cnc(N)c(C(=O)NC(C)C)c1 [LY4, 2-amino-5-[4-[[(2R)-2-(3,5-difluorophenyl)-2-hydroxy-acetyl]amino]-2-methyl-phenyl]-N-isopropyl-pyridine-3-carboxamide]
P-HER2 and total HER2 on the cell surface (surface biotinylation): decreased the amount of P-HER2 and total HER2 in the cell surface | endocytosed phospho-HER2 and total HER2 (reversible surface biotinylation): increasing endocytosed phospho-HER2 and total HER2 | P-EGFR, P-HER2, P-AKT, P-S6, P-ERK1/2 levels (Western blot) (starved cells +/- EGF 100 ng/ml, 15 minutes): decreased both the basal and EGF-induced levels of P-EGFR and P-HER2
